Each block holds one molecule with its values, some of them ahead of it.
Assays:
MMP-9 = MMP-9 release from HT1080 cells (fluorescent AK411 kit); format: cell-based, human; settings: 6 h, Casodex 10 μM
Protocol: (§1) FIG. 4: The S1 peptide inhibits EGF-stimulated migration and MMP-9 secretion in HT1080 cells. Quiescent HT1080 cells were used. In A, cells were left untreated or treated for 6 h with the indicated compounds. MMP-9 release was assayed as described in Methods. In B, cells were allowed to migrate for 6 h in Trans-well filters in the absence or presence of the indicated compounds. Migrated cells were stained and counted as reported in Methods. In A and B, data were expressed as relative increase. Mean and SEM is shown. n represents the number of experiments. In C, cells were wounded and then left unstimulated or stimulated for 6 h with the indicated compounds. Contrast-phase images are representative of 3 different experiments, each performed in duplicate.
(§2) BrdU incorporation, migration and wound healing analysis were done as described (3, 11). MMP-9 activity was assayed (12, 13), using the fluorescent AK411 kit (BIOMOL Res. Lab.).

HT1080 cells [1] = test: BrdU incorporation (DNA synthesis) in HT1080 cells; format: cell-based, human; settings: EGF, Casodex 10 μM
Protocol: Androgen challenging of these cells neither induces AR nuclear translocation, nor enhances DNA synthesis while robustly increases cell motility. In A, quiescent HT1080 cells were transfected with 3416 or 3424 ARE-luc constructs with or without hAR expressing plasmid. Details of these procedures have been described in Methods. Cells were left un-stimulated or stimulated for 18 h with 10 nM R1881. The luciferase activity was assayed, normalized using beta-gal as an internal control, and expressed as fold induction. Means and SEM are shown; n represents the number of experiments. […] In B, quiescent HT1080 cells on coverslips were left untreated or treated for 60 min with 10 nM R1881. Cells were analysed by IF for AR (left images) or Hoechst (right images). Images are representative of three independent experiments. […] In C, BrdU incorporation in cells on coverslips was analysed and expressed as in FIG. 2. In D, the number of migrated cells was evaluated and expressed as relative increase. […]
FIG. 3: Inhibition by S1 peptide of AR/Src complex, Src activation and DNA synthesis triggered by EGF in HT1080 cells. […] Lower section in A, lysates were immune-precipitated with anti EGFR Ab and proteins in immune-complexes were detected using antibodies against the indicated proteins. […] After in vivo pulse with BrdU (100 μM; Sigma), BrdU incorporation was analyzed by IF and expressed as % of total nuclei. […]

[2] = Body weight of HT1080 xenograft mice; format: in vivo; settings: Casodex-treated vs control mice
Protocol: (§3) HT1080 cells in 50% (v/v) Matrigel solution in phosphate-buffered saline (PBS; pH 7.4) were subcutaneously injected in the dorsal posterior region at 2.5×10^6 cells/male athymic mice (CD mice, Charles-River Italia) without hormone priming. Animals were randomly selected for the treatment with Casodex dissolved in 0.1% ethanol or vehicle alone for additional 4 weeks. Tumour volumes of HT1080 cell xeno-grafts were measured by a calliper and expressed as tumour mass (mm^3). For the treatment of each animal, 200 μl of 1 μM Casodex in 0.1% ethanol or the same amount of vehicle alone were intra-peritoneally administered at alternate days to the mice. No difference in body weight was detected between control mice or Casodex-treated mice.

HT1080 cell xenografts = test: HT1080 xenografts in nude male mice, tumor mass; format: in vivo; settings: 200 μl of 1 μM Casodex i.p. at alternate days, 4 weeks, vs vehicle
Protocol: FIG. 1: Casodex reduces the growth of human fibrosarcoma HT1080 xenografts. HT1080 xenografts were established in nude male mice as described in Methods. Tumors were treated with vehicle alone (ethanol), or the pure androgen antagonist, Casodex (Cx; at 1 μM; Sigma-Aldrich). Tumor mass was measured at the indicated times. Mean and SEM are shown. n represents the number of experiments.
as §3

HT1080 cells [3] = test: Migration in Trans-well filters and wound healing of HT1080 cells; format: cell-based, human; settings: 6 h, Casodex 10 μM
Protocol: as §1, §2

Src = biological target: T1, Src (Homo sapiens, UniProt P12931); test: Src kinase assay in immune-complexes with enolase as substrate, EGF-stimulated HT1080 cells; format: cell-based; settings: EGF 100 ng/ml, 10 μM Casodex, compared with 1 nM S1 peptide
T1 construct: lysates were immune-precipitated with the anti-Src MAb and Src activity in immune-complexes was assayed using enolase as a substrate; endogenous in cells; host or cells: HT1080 human fibrosarcoma cells
Protocol: FIG. 3: Inhibition by S1 peptide of AR/Src complex, Src activation and DNA synthesis triggered by EGF in HT1080 cells. Quiescent HT1080 cells were used. The cells were left un-stimulated or stimulated for 10 min with EGF (at 100 ng/ml; Roche) in the absence or presence of S1 or Ss peptide (both at 1 nM). Casodex (at 10 μM) was used for comparison with the S1 peptide. The same concentrations of peptides and Casodex were used throughout the experiments. Upper section in A, the Western blot of HT1080 cell lysates with anti-EGFR antibody is shown. […] Lower section in A, lysates were immune-precipitated with anti EGFR Ab and proteins in immune-complexes were detected using antibodies against the indicated proteins. In B, lysates were immune-precipitated with the anti-Src MAb and Src activity in immune-complexes was assayed using enolase as a substrate. In C, cells on coverslips were left untreated or treated for 18 h with the indicated compounds. After in vivo pulse with BrdU (100 μM; Sigma), BrdU incorporation was analyzed by IF and expressed as % of total nuclei. Mean and SEM are shown. n represents the number of experiments.
Src tyrosine kinase was immune-precipitated, detected and assayed using enolase as a substrate (15). Src, EGF-R and tubulin were detected from cell lysates using appropriate antibodies (7). AR was immune-precipitated and detected as reported (3). […]

[4] = system: non-small cell lung tumor line xenografts; settings: mice, reference 20; cited from earlier work
EGF receptor (EGFR) = biological target: T2, EGF receptor (EGFR) (human, UniProt P00533 25-1210); test: immune-precipitation with anti-EGFR antibody from EGF-stimulated HT1080 lysates, immunoblot
T2 construct: Endogenous protein of HT1080 cells
Protocol: Quiescent HT1080 cells were used. […] The same concentrations of peptides and Casodex were used throughout the experiments. […] In C, cells on coverslips were left untreated or treated for 18 h with the indicated compounds. After in vivo pulse with BrdU (100 μM; Sigma), BrdU incorporation was analyzed by IF and expressed as % of total nuclei. Mean and SEM are shown. n represents the number of experiments.
The ECL system (GE Healthcare) was used to reveal immune-reactive proteins.

T1 sequence (P12931 whole entry): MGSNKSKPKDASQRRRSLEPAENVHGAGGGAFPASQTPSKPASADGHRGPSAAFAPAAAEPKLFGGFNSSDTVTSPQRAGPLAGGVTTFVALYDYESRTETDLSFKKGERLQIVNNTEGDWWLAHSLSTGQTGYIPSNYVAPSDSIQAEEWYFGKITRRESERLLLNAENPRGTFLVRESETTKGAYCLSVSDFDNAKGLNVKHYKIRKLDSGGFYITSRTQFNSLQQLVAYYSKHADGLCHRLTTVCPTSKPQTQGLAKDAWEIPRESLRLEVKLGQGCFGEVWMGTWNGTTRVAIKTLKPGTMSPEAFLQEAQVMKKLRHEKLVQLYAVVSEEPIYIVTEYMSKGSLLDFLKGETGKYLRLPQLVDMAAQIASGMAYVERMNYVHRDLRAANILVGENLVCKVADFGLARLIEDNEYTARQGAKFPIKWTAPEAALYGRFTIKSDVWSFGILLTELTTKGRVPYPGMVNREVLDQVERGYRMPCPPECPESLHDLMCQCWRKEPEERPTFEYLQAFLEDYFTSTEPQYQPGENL

EGF stimulation of Src activity (Src): comparable
Molecule: CC(O)(CS(=O)(=O)c1ccc(F)cc1)C(=O)Nc1ccc(C#N)c(C(F)(F)F)c1 (centres unmarked) [Casodex, reference compound]
EGF-stimulated MMP-9 secretion (MMP-9): inhibits | EGF mitogenic effect (DNA synthesis) (HT1080 cells [1]): abolishes | body weight [2]: No difference | growth (tumor mass) of HT1080 xenografts (HT1080 cell xenografts): reduced | EGF-increased motility (HT1080 cells [3]): inhibited at a similar extent

Molecule: C[C@]12CC[C@@H]3c4ccc(O)cc4C[C@@H](CCCCCCCCC[S+]([O-])CCCC(F)(F)C(F)(F)F)[C@H]3[C@@H]1CC[C@@H]2O (some centres unmarked) [ICI 182,780]
estrogen-stimulated growth of non-small cell lung tumor line xenografts [4]: blocks

binding result (EGF receptor (EGFR)): binds
B1: androgen receptor (AR) (receptor, human, UniProt P10275 1-920, looked up)
chain: MEVQLGLGRVYPRPPSKTYRGAFQNLFQSVREVIQNPGPRHPEAASAAPPGASLLLLQQQQQQQQQQQQQQQQQQQQQQQETSPRQQQQQQGEDGSPQAHRRGPTGYLVLDEEQQPSQPQSALECHPERGCVPEPGAAVAASKGLPQQLPAPPDEDDSAAPSTLSLLGPTFPGLSSCSADLKDILSEASTMQLLQQQQQEAVSEGSSSGRAREASGAPTSSKDNYLGGTSTISDNAKELCKAVSVSMGLGVEALEHLSPGEQLRGDCMYAPLLGVPPAVRPTPCAPLAECKGSLLDDSAGKSTEDTAEYSPFKGGYTKGLEGESLGCSGSAAAGSSGTLELPSTLSLYKSGALDEAAAYQSRDYYNFPLALAGPPPPPPPPHPHARIKLENPLDYGSAWAAAAAQCRYGDLASLHGAGAAGPGSGSPSAAASSSWHTLFTAEEGQLYGPCGGGGGGGGGGGGGGGGGGGGGGGEAGAVAPYGYTRPPQGLAGQESDFTAPDVWYPGGMVSRVPYPSPTCVKSEMGPWMDSYSGPYGDMRLETARDHVLPIDYYFPPQKTCLICGDEASGCHYGALTCGSCKVFFKRAAEGKQKYLCASRNDCTIDKFRRKNCPSCRLRKCYEAGMTLGARKLKKLGNLKLQEEGEASSTTSPTEETTQKLTVSHIEGYECQPIFLNVLEAIEPGVVCAGHDNNQPDSFAALLSSLNELGERQLVHVVKWAKALPGFRNLHVDDQMAVIQYSWMGLMVFAMGWRSFTNVNSRMLYFAPDLVFNEYRMHKSRMYSQCVRMRHLSQEFGWLQITPQEFLCMKALLLFSIIPVDGLKNQKFFDELRMNYIKELDRIIACKRKNPTSCSRRFYQLTKLLDSVQPIARELHQFTFDLLIKSHMVSVDFPEMMAEIISVQVPKILSGKVKPIYFHTQ
notes: Endogenous protein of HT1080 cells (co-immunoprecipitation from lysates)
